For ten compounds, IC50 results are on record in patent publication US20260070945A1, “MACROCYCLIC IMMUNOMODULATORS” (Bristol-Myers Squibb Company, priority 2022, published 2026).

*1 amine or outer side, *2 acyl side, *3 side chain or, on linkers, in order; H or OH if unused. Where a SMILES comes first, the peptide text is derived from it. Bridges are numbered along the chain shown (N, C = ends). [ ]: non-standard residue; d: D form. The star is where a group is joined. ξ: configuration not given here. Bip = N[C@@H](Cc1ccc(-c2ccccc2)cc1)C(=O)O; Phe(3-Me) = Cc1cccc(C[C@H](N)C(=O)O)c1; X11 = CC[C@@H](C)C(N[*:1])C(=O)[*:2]; hArg = N=C(N)NCCCC[C@H](N)C(=O)O; 4Pal = N[C@@H](Cc1ccncc1)C(=O)O; Cha = N[C@@H](CC1CCCCC1)C(=O)O; Ile(3ξ) = CCC(C)[C@H](N)C(=O)O; Thr(3ξ) = CC(O)[C@H](N)C(=O)O; 12Ado = NCCCCCCCCCCCC(=O)O; Carboxymethyl = O=C(O)C*; NMeA = CN[C@@H](C)C(=O)O; Orn = NCCC[C@H](N)C(=O)O; Aun = NCCCCCCCCCCC(=O)O; Dab = NCC[C@H](N)C(=O)O; Dap = NC[C@H](N)C(=O)O; AEEA = NCCOCCOCC(=O)O

The target in the experiment is T1, PD-1/PD-L1 interaction (PE-labeled human PD-L1-Ig binding to Jurkat cell line over-expressing human PD-1) (Homo sapiens, UniProt Q15116).
T1 construct: expressed in transfected cells; host or cells: Jurkat
T1 sequence (Q15116 25-288): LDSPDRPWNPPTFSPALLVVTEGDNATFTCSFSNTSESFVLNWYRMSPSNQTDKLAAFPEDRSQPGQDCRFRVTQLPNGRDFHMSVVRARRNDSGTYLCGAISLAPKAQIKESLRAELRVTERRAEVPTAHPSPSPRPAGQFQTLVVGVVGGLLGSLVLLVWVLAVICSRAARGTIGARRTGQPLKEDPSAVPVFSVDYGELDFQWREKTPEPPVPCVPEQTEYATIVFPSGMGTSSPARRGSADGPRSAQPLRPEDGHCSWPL
In words: Jurkat-PD-1 Cell Binding High-Content Screening Assay (CBA). Particulars: Jurkat-hPD-1 cells, PE-labeled PD-L1-Ig 20 nM final; read-out: Jurkat HPD1 PDL1 IC50. The method, boiled down: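 Jurkat-hPD-1 cells (8×10^3/well) in DMEM with 10% fetal calf serum were preincubated with compound for 2 h at 37 °C. PE-labeled PD-L1-Ig was then added at 20 nM final for 1 h. Cells were fixed in paraformaldehyde with Hoechst 33342, washed and imaged by high-content imaging.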
`CC(C)C[C@@H]1NC(=O)[C@H](Cc2c[nH]c3ccccc23)NC(=O)[C@H](CC(=O)O)NC(=O)[C@H](Cc2c[nH]cn2)NC(=O)[C@H](CCCCNC(=N)N)NC(=O)CSC[C@@H](C(=O)N[C@@H](CCN)C(=O)NCCCCCCCCCCC(=O)O)NC(=O)[C@H](CCCCN)NC(=O)[C@H](C(C)C)NC(=O)[C@H](CC2CCCCC2)NC(=O)[C@H](CCN)NC(=O)[C@@H](CC(C)C)NC(=O)[C@H](C)N(C)C(=O)[C@H](C(C)C)NC(=O)[C@H](Cc2ccc(-c3ccccc3)cc2)NC1=O` [Example 2194] ({CH2CO}-[hArg]HDWL[Bip]V[NMeA][dL][Dab][Cha]VKC[Dab][Aun]-OH; thioether N-14): the IC50 (commonly the concentration that inhibits the measured activity by half) worked out at 39.6 nM. The same measure for `CC(C)C[C@@H]1NC(=O)[C@H](Cc2c[nH]c3ccccc23)NC(=O)[C@H](CC(=O)O)NC(=O)[C@H](Cc2c[nH]cn2)NC(=O)[C@H](CCCCNC(=N)N)NC(=O)CSC[C@@H](C(=O)N[C@@H](CCN)C(=O)NCCCCCCCCCCC(=O)O)NC(=O)[C@H](CCCN)NC(=O)[C@H](C(C)C)NC(=O)[C@H](CC2CCCCC2)NC(=O)[C@H](CCN)NC(=O)[C@@H](CC(C)C)NC(=O)[C@H](C)N(C)C(=O)[C@H](C(C)C)NC(=O)[C@H](Cc2ccc(-c3ccccc3)cc2)NC1=O` [Example 2195] ({CH2CO}-[hArg]HDWL[Bip]V[NMeA][dL][Dab][Cha]V[Orn]C[Dab][Aun]-OH; thioether N-14): 80.3 nM; for `CC[C@@H](C)C1NC(=O)[C@H](Cc2ccc(-c3ccccc3)cc2)NC(=O)[C@H](CC(C)C)NC(=O)[C@H](Cc2cccc(C)c2)NC(=O)[C@H](CC(=O)O)NC(=O)[C@H](Cc2ccc(O)cc2)NC(=O)[C@H](Cc2ccccc2)NC(=O)CSC[C@@H](C(=O)N[C@@H](CCN)C(=O)NCCCCCCCCCCC(=O)O)NC(=O)[C@H](CCCCN)NC(=O)[C@H](C(C)C)NC(=O)[C@H](CC(C)C)NC(=O)[C@H](CCN)NC(=O)[C@@H](C)NC(=O)[C@H](C)N(C)C1=O` (stereo partly shown) [Example 2197] ({CH2CO}-FYD[Phe(3-Me)]L[Bip][X11][NMeA][dA][Dab]LVKC[Dab][Aun]-OH; thioether N-14): 94 nM. The same measure for `Cc1cccc(C[C@@H]2NC(=O)[C@H](CC(=O)O)NC(=O)[C@H](Cc3ccc(O)cc3)NC(=O)[C@H](Cc3ccccc3)NC(=O)CSC[C@@H](C(=O)N[C@@H](CCN)C(=O)NCCCCCCCCCCC(=O)O)NC(=O)[C@H](CCCN)NC(=O)[C@H](C(C)C)NC(=O)[C@H](CC(C)C)NC(=O)[C@H](CCN)NC(=O)[C@@H](C)NC(=O)[C@H](C)N(C)C(=O)[C@H](C(C)C)NC(=O)[C@H](Cc3ccc(-c4ccccc4)cc3)NC(=O)[C@H](CC(C)C)NC2=O)c1` [Example 2198] ({CH2CO}-FYD[Phe(3-Me)]L[Bip]V[NMeA][dA][Dab]LV[Orn]C[Dab][Aun]-OH; thioether N-14): 73 nM; for `CCC(C)[C@@H]1NC(=O)[C@H](Cc2ccc(-c3ccccc3)cc2)NC(=O)[C@H](CC(C)C)NC(=O)[C@H](Cc2cccc(C)c2)NC(=O)[C@H](CC(=O)O)NC(=O)[C@H](Cc2ccc(O)cc2)NC(=O)[C@H](Cc2ccccc2)NC(=O)CSC[C@@H](C(=O)N[C@@H](CN)C(=O)NCCCCCCCCCCC(=O)O)NC(=O)[C@H](CCCN)NC(=O)[C@H](C(C)C)NC(=O)[C@H](CC(C)C)NC(=O)[C@H](CCN)NC(=O)[C@@H](C)NC(=O)[C@H](C)N(C)C1=O` (stereo partly shown) [Example 2199] ({CH2CO}-FYD[Phe(3-Me)]L[Bip][Ile(3ξ)][NMeA][dA][Dab]LV[Orn]C[Dap][Aun]-OH; thioether N-14): 132 nM; for `CCC(C)[C@@H]1NC(=O)[C@H](Cc2ccc(-c3ccccc3)cc2)NC(=O)[C@H](CC(C)C)NC(=O)[C@H](Cc2cccc(C)c2)NC(=O)[C@H](CC(=O)O)NC(=O)[C@H](Cc2ccc(O)cc2)NC(=O)[C@H](Cc2ccncc2)NC(=O)CSC[C@@H](C(=O)N[C@@H](CCN)C(=O)NCCCCCCCCCCC(=O)O)NC(=O)[C@H](CCCCN)NC(=O)[C@H](C(C)C)NC(=O)[C@H](CC(C)C)NC(=O)[C@H](CCN)NC(=O)[C@@H](C)NC(=O)[C@H](C)N(C)C1=O` (stereo partly shown) [Example 2200] ({CH2CO}-[4Pal]YD[Phe(3-Me)]L[Bip][Ile(3ξ)][NMeA][dA][Dab]LVKC[Dab][Aun]-OH; thioether N-14): 20.6 nM. With `Cc1cccc(C[C@@H]2NC(=O)[C@H](CC(=O)O)NC(=O)[C@H](Cc3ccc(O)cc3)NC(=O)[C@H](Cc3ccncc3)NC(=O)CSC[C@@H](C(=O)N[C@@H](CCN)C(=O)NCCCCCCCCCCC(=O)O)NC(=O)[C@H](CCCN)NC(=O)[C@H](C(C)C)NC(=O)[C@H](CC(C)C)NC(=O)[C@H](CCN)NC(=O)[C@@H](C)NC(=O)[C@H](C)N(C)C(=O)[C@H](C(C)C)NC(=O)[C@H](Cc3ccc(-c4ccccc4)cc3)NC(=O)[C@H](CC(C)C)NC2=O)c1` [Example 2201] ({CH2CO}-[4Pal]YD[Phe(3-Me)]L[Bip]V[NMeA][dA][Dab]LV[Orn]C[Dab][Aun]-OH; thioether N-14), the IC50 came out at 15.2 nM.

Consider `CCC(C)[C@@H]1NC(=O)[C@H](Cc2ccc(-c3ccccc3)cc2)NC(=O)[C@H](CC(C)C)NC(=O)[C@H](Cc2cccc(C)c2)NC(=O)[C@H](CC(=O)O)NC(=O)[C@H](Cc2ccc(O)cc2)NC(=O)[C@H](Cc2ccncc2)NC(=O)CSC[C@@H](C(=O)N[C@@H](CN)C(=O)NCCCCCCCCCCC(=O)O)NC(=O)[C@H](CCCN)NC(=O)[C@H](C(C)C)NC(=O)[C@H](CC(C)C)NC(=O)[C@H](CCN)NC(=O)[C@@H](C)NC(=O)[C@H](C)N(C)C1=O` (stereo partly shown) [Example 2202] ({CH2CO}-[4Pal]YD[Phe(3-Me)]L[Bip][Ile(3ξ)][NMeA][dA][Dab]LV[Orn]C[Dap][Aun]-OH; thioether N-14), for which the 50% inhibitory concentration (IC50) turned out to be 31.3 nM. The figure for `CC(C)C[C@H]1NC(=O)[C@H](C)N(C)C(=O)[C@H](C(C)C)NC(=O)[C@H](Cc2ccc(-c3ccccc3)cc2)NC(=O)[C@H](C(C)C)NC(=O)[C@H](Cc2c[nH]c3ccccc23)NC(=O)[C@H](CC(=O)O)NC(=O)[C@H](Cc2ccc(OCC(=O)O)cc2)NC(=O)[C@H](C(C)O)NC(=O)CSC[C@@H](C(=O)N[C@H](CC(N)=O)C(=O)NCCOCCOCC(=O)NCCCCCCCCCCCC(=O)O)NC(=O)[C@H](CCCN)NC(=O)[C@H](C(C)C)NC(=O)[C@H](CC2CCCCC2)NC(=O)[C@H](CCN)NC1=O` (stereo partly drawn) [Example 2203] ({CH2CO}-[Thr(3ξ)]Y(Carboxymethyl)DWV[Bip]V[NMeA][dL][Dab][Cha]V[Orn]C[dN][AEEA][12Ado]-OH; thioether N-14) is 9.5 nM.

Take `CC(C)C[C@H]1NC(=O)[C@H](C)N(C)C(=O)[C@H](C(C)C)NC(=O)[C@H](Cc2ccc(-c3ccccc3)cc2)NC(=O)[C@H](C(C)C)NC(=O)[C@H](Cc2c[nH]c3ccccc23)NC(=O)[C@H](CC(=O)O)NC(=O)[C@H](Cc2ccc(OCC(=O)O)cc2)NC(=O)[C@H](CCCNC(=N)N)NC(=O)CSC[C@@H](C(=O)N[C@H](CC(N)=O)C(=O)NCCOCCOCC(=O)NCCCCCCCCCCCC(=O)O)NC(=O)[C@H](CCCCN)NC(=O)[C@H](C(C)C)NC(=O)[C@H](CC2CCCCC2)NC(=O)[C@H](CCN)NC1=O` [Example 2204] ({CH2CO}-RY(Carboxymethyl)DWV[Bip]V[NMeA][dL][Dab][Cha]VKC[dN][AEEA][12Ado]-OH; thioether N-14): the half-maximal inhibitory concentration (IC50) came to 20.3 nM.
